Reference: patent publication US10597387B2, “Methods to treat lymphoplasmacytic lymphoma” (Dana-Farber Cancer Institute, Inc., priority 2013, dated 2020)

How the values were obtained:
Assay in all cases: KiNativ kinase profiling
ABL, ARG = format: binding, Homo sapiens; conditions: Activation Loop, 1 μM, A375 cells
ACK = ACK (Homo sapiens (Human), UniProt Q07912); format: binding; conditions: Lys1, A375 cells, read-out: inhibition of kinase labeling
AMPKa1, AMPKa2 = format: binding, Homo sapiens; conditions: Lys1, 1 μM, A375 cells
BLK = BLK (Homo sapiens (Human), UniProt P51451); format: binding; conditions: Activation Loop, A375 cells, read-out: inhibition of kinase labeling
[1] = tested on: CaMK2a, CaMK2b, CaMK2d, CaMK2g; format: binding, Homo sapiens; conditions: Lys2, 1 μM, A375 cells
CaMK2d = CaMK2d (Homo sapiens (Human), UniProt Q13557); format: binding; conditions: Lys1, A375 cells, read-out: inhibition of kinase labeling
CDK5 = CDK5 (Homo sapiens (Human), UniProt Q00535); format: binding; conditions: Lys2, A375 cells, read-out: inhibition of kinase labeling
CDK7 = CDK7 (Homo sapiens (Human), UniProt P50613); format: binding; conditions: Lys2, A375 cells, read-out: inhibition of kinase labeling
CHK2 = CHK2 (Homo sapiens (Human), UniProt O96017); format: binding; conditions: Lys1, A375 cells, read-out: inhibition of kinase labeling
CK1g1 = CK1g1 (Homo sapiens (Human), UniProt Q9HCP0); format: binding; conditions: Lys2, A375 cells, read-out: inhibition of kinase labeling
DNAPK = DNAPK (Homo sapiens (Human), UniProt P78527); format: binding; conditions: ATP, A375 cells, read-out: inhibition of kinase labeling
Erk1 = Erk1 (Homo sapiens (Human), UniProt P27361); format: binding; conditions: Lys2, A375 cells, read-out: inhibition of kinase labeling
FRAP = FRAP (Homo sapiens (Human), UniProt P42345); format: binding; conditions: ATP, A375 cells, read-out: inhibition of kinase labeling
GCK = GCK (Homo sapiens (Human), UniProt Q12851); format: binding; conditions: Lys2, A375 cells, read-out: inhibition of kinase labeling
HPK1 = HPK1 (Homo sapiens (Human), UniProt Q92918); format: binding; conditions: Lys1, A375 cells, read-out: inhibition of kinase labeling
IKKe = IKKe (Homo sapiens (Human), UniProt Q14164); format: binding; conditions: Lys1, A375 cells, read-out: inhibition of kinase labeling
IKKe, TBK1 = format: binding, Homo sapiens; conditions: Lys2, 1 μM, A375 cells
JAK1 domain2 = JAK1 domain2 (Homo sapiens (Human), UniProt P23458); format: binding; conditions: Lys1, A375 cells, read-out: inhibition of kinase labeling
LCK = LCK (Homo sapiens (Human), UniProt P06239); format: binding; conditions: Activation Loop, A375 cells, read-out: inhibition of kinase labeling
MAP3K4 = MAP3K4 (Homo sapiens (Human), UniProt Q9Y6R4); format: binding; conditions: Lys2, A375 cells, read-out: inhibition of kinase labeling
MASTL = MASTL (Homo sapiens (Human), UniProt Q96GX5); format: binding; conditions: Lys1, A375 cells, read-out: inhibition of kinase labeling
MST4, YSK1 = format: binding, Homo sapiens; conditions: Lys2, 1 μM, A375 cells
NEK7 = NEK7 (Homo sapiens (Human), UniProt Q8TDX7); format: binding; conditions: Lys1, A375 cells, read-out: inhibition of kinase labeling
NEK9 = NEK9 (Homo sapiens (Human), UniProt Q8TD19); format: binding; conditions: Lys2, A375 cells, read-out: inhibition of kinase labeling
p70S6K = p70S6K (Homo sapiens (Human), UniProt P23443); format: binding; conditions: Lys2, A375 cells, read-out: inhibition of kinase labeling
PIK3CD = PIK3CD (Homo sapiens (Human), UniProt O00329); format: binding; conditions: ATP, A375 cells, read-out: inhibition of kinase labeling
PIP5K3 = PIP5K3 (Homo sapiens (Human), UniProt Q9Y2I7); format: binding; conditions: ATP, A375 cells, read-out: inhibition of kinase labeling
PKD1, PKD2 = format: binding, Homo sapiens; conditions: Lys2, 1 μM, A375 cells
PKD3 = PKD3 (Homo sapiens (Human), UniProt O94806); format: binding; conditions: Lys2, A375 cells, read-out: inhibition of kinase labeling
RSK1 domain1 = RSK1 domain1 (Homo sapiens (Human), UniProt Q15418); format: binding; conditions: Lys2, A375 cells, read-out: inhibition of kinase labeling
STLK6 = STLK6 (Homo sapiens (Human), UniProt Q9C0K7); format: binding; conditions: Lys2, A375 cells, read-out: inhibition of kinase labeling
TLK2 = TLK2 (Homo sapiens (Human), UniProt Q86UE8); format: binding; conditions: Lys2, A375 cells, read-out: inhibition of kinase labeling
ULK3 = ULK3 (Homo sapiens (Human), UniProt Q6PHR2); format: binding; conditions: Lys1, A375 cells, read-out: inhibition of kinase labeling
ZAP70 = ZAP70 (Homo sapiens (Human), UniProt P43403); format: binding; conditions: Activation Loop, A375 cells, read-out: inhibition of kinase labeling
Chain of ZAP70 (P43403 whole entry): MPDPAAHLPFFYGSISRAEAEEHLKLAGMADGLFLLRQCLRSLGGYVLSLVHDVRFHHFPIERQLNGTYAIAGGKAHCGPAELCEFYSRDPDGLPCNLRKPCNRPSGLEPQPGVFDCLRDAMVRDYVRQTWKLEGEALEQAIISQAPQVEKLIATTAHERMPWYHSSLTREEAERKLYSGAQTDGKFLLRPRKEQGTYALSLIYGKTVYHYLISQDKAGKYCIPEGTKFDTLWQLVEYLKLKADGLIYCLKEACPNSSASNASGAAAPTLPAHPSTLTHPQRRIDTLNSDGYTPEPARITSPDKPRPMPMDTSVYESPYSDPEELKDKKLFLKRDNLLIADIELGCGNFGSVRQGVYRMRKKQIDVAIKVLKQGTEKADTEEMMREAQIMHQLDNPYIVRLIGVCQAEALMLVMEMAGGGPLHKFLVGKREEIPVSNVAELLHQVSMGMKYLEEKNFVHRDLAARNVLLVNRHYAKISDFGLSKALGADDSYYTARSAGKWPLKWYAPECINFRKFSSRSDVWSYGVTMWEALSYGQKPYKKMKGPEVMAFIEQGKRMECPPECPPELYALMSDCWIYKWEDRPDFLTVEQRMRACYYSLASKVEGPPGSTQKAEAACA

Chain of RSK1 domain1 (Q15418 whole entry, the tested form may be a part): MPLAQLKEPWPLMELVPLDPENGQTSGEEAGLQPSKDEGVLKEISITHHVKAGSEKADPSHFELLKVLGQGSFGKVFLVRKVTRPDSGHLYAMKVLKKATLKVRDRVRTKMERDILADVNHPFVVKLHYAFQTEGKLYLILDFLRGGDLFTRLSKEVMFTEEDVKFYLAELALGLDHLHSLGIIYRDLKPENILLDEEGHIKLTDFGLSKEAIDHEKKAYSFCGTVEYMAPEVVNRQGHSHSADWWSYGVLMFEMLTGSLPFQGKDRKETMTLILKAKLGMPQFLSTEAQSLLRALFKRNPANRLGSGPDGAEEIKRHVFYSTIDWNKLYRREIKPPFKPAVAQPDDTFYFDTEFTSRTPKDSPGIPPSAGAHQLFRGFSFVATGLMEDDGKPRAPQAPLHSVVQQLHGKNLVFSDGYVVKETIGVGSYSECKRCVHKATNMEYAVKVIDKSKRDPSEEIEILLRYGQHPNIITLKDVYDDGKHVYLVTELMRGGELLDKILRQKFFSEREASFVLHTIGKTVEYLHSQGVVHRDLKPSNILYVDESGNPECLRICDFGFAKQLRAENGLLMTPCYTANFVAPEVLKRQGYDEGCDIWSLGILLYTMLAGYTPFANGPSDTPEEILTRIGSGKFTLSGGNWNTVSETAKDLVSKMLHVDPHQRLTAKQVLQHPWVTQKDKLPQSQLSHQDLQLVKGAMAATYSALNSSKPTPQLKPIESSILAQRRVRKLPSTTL
Chain of IKKe (Q14164 whole entry): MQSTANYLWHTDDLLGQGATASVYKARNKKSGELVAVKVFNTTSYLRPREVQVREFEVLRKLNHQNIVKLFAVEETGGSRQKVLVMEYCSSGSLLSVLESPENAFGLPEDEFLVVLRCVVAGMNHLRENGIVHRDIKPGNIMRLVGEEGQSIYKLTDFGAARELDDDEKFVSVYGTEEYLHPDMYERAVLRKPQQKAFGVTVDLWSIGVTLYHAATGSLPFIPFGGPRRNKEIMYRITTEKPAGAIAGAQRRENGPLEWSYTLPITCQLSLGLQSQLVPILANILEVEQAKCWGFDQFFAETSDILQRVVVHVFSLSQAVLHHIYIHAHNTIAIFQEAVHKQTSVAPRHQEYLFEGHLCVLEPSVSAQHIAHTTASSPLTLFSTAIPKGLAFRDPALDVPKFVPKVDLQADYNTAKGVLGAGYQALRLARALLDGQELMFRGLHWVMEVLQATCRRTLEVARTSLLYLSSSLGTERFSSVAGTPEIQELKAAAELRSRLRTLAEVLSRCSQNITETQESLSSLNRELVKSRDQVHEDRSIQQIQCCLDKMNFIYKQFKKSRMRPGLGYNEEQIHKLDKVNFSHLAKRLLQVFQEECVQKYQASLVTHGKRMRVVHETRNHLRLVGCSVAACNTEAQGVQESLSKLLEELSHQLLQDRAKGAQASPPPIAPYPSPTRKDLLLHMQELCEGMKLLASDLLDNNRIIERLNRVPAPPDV
Chain of CDK5 (Q00535 whole entry): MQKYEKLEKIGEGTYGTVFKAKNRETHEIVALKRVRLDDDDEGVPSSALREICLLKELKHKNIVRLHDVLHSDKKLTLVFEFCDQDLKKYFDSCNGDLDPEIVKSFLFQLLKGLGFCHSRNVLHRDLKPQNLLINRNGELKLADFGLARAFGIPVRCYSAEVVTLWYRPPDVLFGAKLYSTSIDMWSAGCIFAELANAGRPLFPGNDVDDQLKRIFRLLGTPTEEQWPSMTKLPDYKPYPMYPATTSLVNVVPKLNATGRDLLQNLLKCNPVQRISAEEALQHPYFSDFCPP
Chain of Erk1 (P27361 whole entry): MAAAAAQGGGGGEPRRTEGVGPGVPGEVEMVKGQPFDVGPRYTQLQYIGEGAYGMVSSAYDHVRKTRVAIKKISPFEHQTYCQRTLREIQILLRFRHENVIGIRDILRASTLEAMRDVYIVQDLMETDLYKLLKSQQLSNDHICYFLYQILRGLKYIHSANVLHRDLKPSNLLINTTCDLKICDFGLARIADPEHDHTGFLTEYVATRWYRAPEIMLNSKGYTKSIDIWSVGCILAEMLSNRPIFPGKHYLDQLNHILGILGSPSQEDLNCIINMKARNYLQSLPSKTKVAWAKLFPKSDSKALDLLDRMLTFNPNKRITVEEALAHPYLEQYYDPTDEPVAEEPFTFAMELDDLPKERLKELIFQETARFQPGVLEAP
Chain of ACK (Q07912 whole entry): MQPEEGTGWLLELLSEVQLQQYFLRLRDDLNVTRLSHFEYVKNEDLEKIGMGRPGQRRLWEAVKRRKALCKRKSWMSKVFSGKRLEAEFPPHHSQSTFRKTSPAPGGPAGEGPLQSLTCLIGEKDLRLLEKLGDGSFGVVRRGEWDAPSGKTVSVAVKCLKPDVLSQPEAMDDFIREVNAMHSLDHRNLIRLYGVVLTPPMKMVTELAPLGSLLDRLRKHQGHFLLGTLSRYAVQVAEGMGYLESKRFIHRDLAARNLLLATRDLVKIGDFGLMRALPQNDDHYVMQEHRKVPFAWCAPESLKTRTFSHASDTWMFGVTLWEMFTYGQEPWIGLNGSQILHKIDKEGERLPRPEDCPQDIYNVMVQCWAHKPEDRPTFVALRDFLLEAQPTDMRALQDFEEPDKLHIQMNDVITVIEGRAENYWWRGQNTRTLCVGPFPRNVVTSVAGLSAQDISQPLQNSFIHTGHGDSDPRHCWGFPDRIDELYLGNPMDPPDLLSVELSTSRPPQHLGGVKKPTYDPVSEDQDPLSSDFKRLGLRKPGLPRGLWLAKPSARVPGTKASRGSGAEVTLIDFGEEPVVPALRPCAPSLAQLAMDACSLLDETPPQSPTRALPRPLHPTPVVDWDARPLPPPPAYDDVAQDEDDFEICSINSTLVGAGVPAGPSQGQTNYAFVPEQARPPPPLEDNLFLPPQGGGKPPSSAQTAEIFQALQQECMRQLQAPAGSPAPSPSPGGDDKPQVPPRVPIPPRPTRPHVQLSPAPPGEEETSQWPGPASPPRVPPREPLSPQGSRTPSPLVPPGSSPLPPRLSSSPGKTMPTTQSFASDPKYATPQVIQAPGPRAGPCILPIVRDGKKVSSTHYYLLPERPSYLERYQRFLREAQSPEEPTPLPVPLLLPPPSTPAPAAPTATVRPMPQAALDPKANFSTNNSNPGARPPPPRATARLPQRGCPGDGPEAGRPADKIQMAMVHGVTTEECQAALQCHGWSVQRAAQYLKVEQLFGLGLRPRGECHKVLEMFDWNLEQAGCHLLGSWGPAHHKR
Chain of p70S6K (P23443 whole entry): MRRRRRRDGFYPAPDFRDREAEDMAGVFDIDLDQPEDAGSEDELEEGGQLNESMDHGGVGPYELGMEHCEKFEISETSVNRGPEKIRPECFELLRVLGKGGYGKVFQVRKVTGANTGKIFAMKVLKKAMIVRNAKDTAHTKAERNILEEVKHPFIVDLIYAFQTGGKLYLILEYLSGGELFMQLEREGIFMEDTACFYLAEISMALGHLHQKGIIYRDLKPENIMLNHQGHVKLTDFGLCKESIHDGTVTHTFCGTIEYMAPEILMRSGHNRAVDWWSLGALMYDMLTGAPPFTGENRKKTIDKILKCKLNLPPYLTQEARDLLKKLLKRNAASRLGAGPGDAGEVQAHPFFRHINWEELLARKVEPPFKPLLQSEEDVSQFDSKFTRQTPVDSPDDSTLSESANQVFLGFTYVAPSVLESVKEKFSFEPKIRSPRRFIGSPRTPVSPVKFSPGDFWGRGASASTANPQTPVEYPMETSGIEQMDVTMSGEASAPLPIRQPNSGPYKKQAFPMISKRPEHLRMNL
Chain of BLK (P51451 whole entry): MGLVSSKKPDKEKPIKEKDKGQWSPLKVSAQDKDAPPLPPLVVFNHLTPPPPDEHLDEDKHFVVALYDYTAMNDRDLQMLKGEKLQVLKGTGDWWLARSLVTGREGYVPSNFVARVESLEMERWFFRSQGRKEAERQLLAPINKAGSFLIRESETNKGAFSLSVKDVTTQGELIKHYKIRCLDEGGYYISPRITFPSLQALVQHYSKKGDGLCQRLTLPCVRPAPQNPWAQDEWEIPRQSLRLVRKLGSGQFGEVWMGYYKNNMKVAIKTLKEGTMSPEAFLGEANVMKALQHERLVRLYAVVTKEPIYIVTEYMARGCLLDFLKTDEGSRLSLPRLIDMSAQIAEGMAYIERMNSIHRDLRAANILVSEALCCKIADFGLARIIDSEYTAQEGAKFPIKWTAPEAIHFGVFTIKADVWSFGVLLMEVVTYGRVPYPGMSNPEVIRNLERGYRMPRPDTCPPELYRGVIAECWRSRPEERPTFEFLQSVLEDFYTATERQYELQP

Cc1ccc(C(=O)Nc2cccc(C(C)(C)C#N)c2)cc1NC(=O)c1cncc(-c2cccs2)c1 [I-6, N-(5-((3-(2-cyanopropan-2-yl)phenyl)carbamoyl)-2-methylphenyl)-5-(thiophen-2-yl)nicotinamide]
inhibition of kinase labeling (ABL, ARG): >90%
inhibition at 1 µM (ACK): -1.2%
inhibition of kinase labeling (AMPKa1, AMPKa2): 15.3%
inhibition at 1 µM (BLK): 68.8%
inhibition of kinase labeling [1]: 0.7%
inhibition at 1 µM (CaMK2d): -1.1%
inhibition at 1 µM (CDK5): 9.3%
inhibition at 1 µM (CDK7): -6.8%
inhibition at 1 µM (CHK2): 4.7%
inhibition at 1 µM (CK1g1): 14.4%
inhibition at 1 µM (DNAPK): 4.6%
inhibition at 1 µM (Erk1): -3%
inhibition at 1 µM (FRAP): -8.8%
inhibition at 1 µM (GCK): 21.9%
inhibition at 1 µM (HPK1): 7.5%
inhibition at 1 µM (IKKe): 3.8%
inhibition of kinase labeling (IKKe, TBK1): 24.8%
inhibition at 1 µM (JAK1 domain2): 3.3%
inhibition at 1 µM (LCK): 82.1%
inhibition at 1 µM (MAP3K4): 6.5%
inhibition at 1 µM (MASTL): -3.7%
inhibition of kinase labeling (MST4, YSK1): 22%
inhibition at 1 µM (NEK7): 10.7%
inhibition at 1 µM (NEK9): -0.3%
inhibition at 1 µM (p70S6K): 7.4%
inhibition at 1 µM (PIK3CD): -6.8%
inhibition at 1 µM (PIP5K3): 17.8%
inhibition of kinase labeling (PKD1, PKD2): −2.5%
inhibition at 1 µM (PKD3): -4.5%
inhibition at 1 µM (RSK1 domain1): 33.3%
inhibition at 1 µM (STLK6): 44.8%
inhibition at 1 µM (TLK2): -18.8%
inhibition at 1 µM (ULK3): -21.5%
inhibition at 1 µM (ZAP70): 7.5%
